According to patent publication US20240115676A1, “SILICIFIED TUMOR CELL COMPOSITIONS AND METHODS” (UNM Rainforest Innovations, priority 2020, published 2024):

Columns and labels:
BR5-Akt-Luc2 tumors = experiment: Cisplatin and vaccine combination therapy in late stage ovarian cancer model; type: in vivo, FVB mice; details: cisplatin 2 mg/kg intraperitoneally Day 9, vaccine Day 10 after tumor challenge
Experimental: Tumor-bearing or naïve female FVB mice were vaccinated intraperitoneally with irradiated (100 Gy at […], 15 mA, 48 Gy/min; or a Cs-137 gamma irradiator with a dose rate of 63 cGy/min) or silicified BR5-Akt (or BR5-Akt-Luc2 for vaccine viability analysis) cells (with TLR ligands as indicated) using doses of 3×10^4, 3×10^5, 3×10^6, or 3×10^7 Si-cells/mouse in 200 μl of PBS at the indicated schedules. Alternatively, mice were vaccinated subcutaneously (SC) with 3×10^6 Si-cells by scruffing the skin at the back of their neck and injecting an equivalent volume into the loose fold of skin. Mice that cleared all tumor cells based on IVIS Spectrum bioluminescent imaging were re-challenged with 2×10^5 BR5-Akt-Luc2 cancer cells at a later date, as indicated for each study. All control (no Tx) mice received sham PBS injections (200 μl/mouse). Single agent or combination therapy with cisplatin used IP administration of cis-diamineplatinum (II) dichloride (Sigma-Aldrich, St. Louis, MO) on Day 9 at 2 mg/kg in physiological saline.
For in vivo monitoring of tumor burden, mice with BR5-Akt-Luc2 tumors were administered 150 mg luciferin/kg by intraperitoneal injection, with a 10-minute delay before imaging. Mice were then anesthetized using 2.5% isoflurane, and 2D/3D bioluminescence images were acquired using an in vivo imaging system (XENOGEN IVIS SPECTRUM, PerkinElmer, Inc., Waltham, MA). […]

[1] = tested on: dendritic cells (CD11c^+); experiment: In vitro activation of dendritic cells (CD40) by silicified tumor cells and doxorubicin-treated cancer cell supernatant; type: cell-based; details: supernatant from cancer cells treated with doxorubicin 5 ng/mL or 50 ng/mL, with vaccine
Experimental: Dendritic cells were seeded in 12-well plates at a density of 100,000 cells per well. After 24 hours, supernatant from cancer cells treated with doxorubicin (5 ng/mL or 50 ng/mL) was added, with or without 100,000 silicified tumor cells. Cells were labeled with fluorescent antibodies specific for CD40 and CD11c and analyzed using the Attune Flow Cytometer.

Structure (SMILES)	survival (BR5-Akt-Luc2 tumors)	tumor burden (bioluminescence) (BR5-Akt-Luc2 tumors)	activation of dendritic cells (surface expression of CD40) [1]
N.N.[Cl][Pt][Cl] [Cisplatin, cis-diamineplatinum (II) dichloride]	improved survival	reduced tumor burden in some mice	
COc1cccc2c1C(=O)c1c(O)c3c(c(O)c1C2=O)C[C@@](O)(C(=O)CO)C[C@@H]3O[C@H]1C[C@H](N)[C@H](O)[C@H](C)O1 [doxorubicin]			enhanced vaccine-mediated activation of dendritic cells
